Experimental data from ChEMBL document CHEMBL3044927, “Novel 4(3H)-quinazolinone analogs: synthesis and anticonvulsant activity” (Med Chem Res, 2013).
Calls of active or inactive are those of the source. No cut-off for these calls is given here.

Assays:
[1] = system: Mus musculus; assay: Anticonvulsant activity in Swiss albino Mus musculus (mouse) assessed as protection against PTZ-induced seizure at 1.5 mmol/kg, ip administered 30 min prior to PTZ-challenge measured up to 30 min relative to control; type: functional
[2] = system: Mus musculus; assay: Anticonvulsant activity in Swiss albino Mus musculus (mouse) assessed as protection against bicuculline-induced seizure at 1.5 mmol/kg, ip administered 30 min prior to bicuculline-challenge measured up to 30 min relative to control; type: functional
[3] = system: Mus musculus; assay: Anticonvulsant activity in Swiss albino Mus musculus (mouse) assessed as protection against maximal electric shock-induced seizure at 1.5 mmol/kg, ip administered 30 min prior to maximal electric shock-challenge measured up to 30 min relative to control; type: functional
[4] = system: Mus musculus; assay: Anticonvulsant activity in Swiss albino Mus musculus (mouse) assessed as protection against picrotoxin-induced seizure at 1.5 mmol/kg, ip administered 30 min prior to picrotoxin-challenge measured up to 30 min relative to control; type: functional
[5] = Toxicity against Swiss albino Mus musculus (mouse) assessed as mortality at 1.5 mmol/kg, ip; type: organism-based; settings: in vivo, read-out: Activity
[6] = system: Mus musculus; assay: Anticonvulsant activity in Swiss albino Mus musculus (mouse) assessed as protection against picrotoxin-induced seizure at 1.38 mmol/kg, ip administered 30 min prior to picrotoxin-challenge measured up to 30 min relative to control; type: functional
[7] = system: Mus musculus; assay: Anticonvulsant activity in Swiss albino Mus musculus (mouse) assessed as protection against bicuculline-induced seizure at 1.38 mmol/kg, ip administered 30 min prior to bicuculline-challenge measured up to 30 min relative to control; type: functional
[8] = system: Mus musculus; assay: Anticonvulsant activity in Swiss albino Mus musculus (mouse) assessed as protection against PTZ-induced seizure at 1.38 mmol/kg, ip administered 30 min prior to PTZ-challenge measured up to 30 min relative to control; type: functional
[9] = system: Mus musculus; assay: Anticonvulsant activity in Swiss albino Mus musculus (mouse) assessed as protection against maximal electric shock-induced seizure at 1.38 mmol/kg, ip administered 30 min prior to maximal electric shock-challenge measured up to 30 min relative to control; type: functional
[10] = system: Mus musculus; assay: Neurotoxicity against Swiss albino Mus musculus (mouse) at 0.75 mmol/kg, ip measured after 15 to 25 min by chimney test; type: toxicity, organism-based; settings: in vivo
[11] = system: Mus musculus; assay: Anticonvulsant activity in Swiss albino Mus musculus (mouse) assessed as protection against bicuculline-induced seizure at 0.75 mmol/kg, i.p. administered 30 min prior to bicuculline-challenge measured up to 30 min relative to control; type: functional
[12] = Toxicity against i.p. dosed Swiss albino Mus musculus (mouse) by Sperman-Karber method; type: organism-based; settings: in vivo, ip
[13] = system: Mus musculus; assay: Anticonvulsant activity in Swiss albino Mus musculus (mouse) assessed as protection against maximal electric shock-induced seizure at 0.75 mmol/kg, i.p. administered 30 min prior to maximal electric shock-challenge measured up to 30 min relative to control; type: functional
[14] = system: Mus musculus; assay: Anticonvulsant activity in Swiss albino Mus musculus (mouse) assessed as protection against bicuculline-induced seizure at 0.18 mmol/kg, i.p. administered 30 min prior to bicuculline-challenge measured up to 30 min relative to control; type: functional
[15] = Therapeutic index, ratio of LD50 to ED50 in Swiss albino Mus musculus (mouse); type: organism-based; settings: in vivo, read-out: Ratio LD50/ED50
[16] = system: Mus musculus; assay: Anticonvulsant activity in Swiss albino Mus musculus (mouse) assessed as protection against picrotoxin-induced seizure at 0.37 mmol/kg, i.p. administered 30 min prior to picrotoxin-challenge measured up to 30 min relative to control; type: functional
[17] = species: Mus musculus; assay: Protective index, ratio of TD50 for to ED50 in Swiss albino Mus musculus (mouse)
[18] = system: Mus musculus; assay: Anticonvulsant activity in Swiss albino Mus musculus (mouse) assessed as protection against bicuculline-induced seizure at 0.37 mmol/kg, i.p. administered 30 min prior to bicuculline-challenge measured up to 30 min relative to control; type: functional
[19] = system: Mus musculus; assay: Neurotoxicity against Swiss albino Mus musculus (mouse) at 1.5 mmol/kg, ip measured after 15 to 25 min by chimney test; type: toxicity, organism-based; settings: in vivo
[20] = system: Mus musculus; assay: Anticonvulsant activity in Swiss albino Mus musculus (mouse) assessed as protection against PTZ-induced seizure at 0.37 mmol/kg, ip administered 30 min prior to PTZ-challenge measured up to 30 min relative to control; type: functional
[21] = system: Mus musculus; assay: Anticonvulsant activity in Swiss albino Mus musculus (mouse) assessed as protection against PTZ-induced seizure at 0.75 mmol/kg, ip administered 30 min prior to PTZ-challenge measured up to 30 min relative to control; type: functional
[22] = Neurotoxicity against ip dosed Swiss albino Mus musculus (mouse) measured after 15 to 25 min by chimney test; type: toxicity, organism-based; settings: in vivo
[23] = system: Mus musculus; assay: Anticonvulsant activity in Swiss albino Mus musculus (mouse) assessed as protection against maximal electric shock-induced seizure at 0.18 mmol/kg, i.p. administered 30 min prior to maximal electric shock-challenge measured up to 30 min relative to control; type: functional
[24] = system: Mus musculus; assay: Anticonvulsant activity in ip dosed Swiss albino Mus musculus (mouse) assessed as protection against PTZ-induced seizure administered 30 min prior to PTZ-challenge measured up to 30 min; type: functional
[25] = system: Mus musculus; assay: Neurotoxicity against Swiss albino Mus musculus (mouse) at 0.18 mmol/kg, ip measured after 15 to 25 min by chimney test; type: toxicity, organism-based; settings: in vivo
[26] = system: Mus musculus; assay: Neurotoxicity against Swiss albino Mus musculus (mouse) at 0.37 mmol/kg, ip measured after 15 to 25 min by chimney test; type: toxicity, organism-based; settings: in vivo
[27] = system: Mus musculus; assay: Anticonvulsant activity in Swiss albino Mus musculus (mouse) assessed as protection against PTZ-induced seizure at 0.18 mmol/kg, ip administered 30 min prior to PTZ-challenge measured up to 30 min relative to control; type: functional
[28] = system: Mus musculus; assay: Anticonvulsant activity in Swiss albino Mus musculus (mouse) assessed as protection against maximal electric shock-induced seizure at 0.37 mmol/kg, i.p. administered 30 min prior to maximal electric shock-challenge measured up to 30 min relative to control; type: functional

## Cc1ccc2nc(SCC(=O)NN3C(=O)CCC3=O)n(Cc3ccccc3)c(=O)c2c1
[1]
  Activity: 30%

## O=C(Nn1c(-c2cccs2)nc2ccc(I)cc2c1=O)c1ccccc1
[2]
  Activity: 100%
[3]
  Activity: 0%
[1]
  Activity: 100%
[4]
  Activity: 80%

## O=C1c2cccc3cccc(c23)C(=O)N1n1c(-c2cccs2)nc2ccc(I)cc2c1=O
[1]
  Activity: inactive

## Cc1ccc2nc(SCC(=O)NN)n(-c3ccccc3)c(=O)c2c1
[1]
  Activity: inactive
[5]
  mortality: 100%

## O=c1c2cc([N+](=O)[O-])ccc2nc(S)n1-c1ccccc1
[1]
  Activity: 30%

## CCOC(=O)COc1nc(-c2cccs2)nc2ccc(I)cc12
[1]
  Activity: 30%

## O=C(COc1nc(-c2cccs2)nc2ccc(I)cc12)NN1C(=O)c2ccccc2C1=O
[1]
  Activity: 30%

## O=c1[nH]c(-c2cccs2)nc2ccc(I)cc12
[1]
  Activity: inactive

## NNc1nc2ccc([N+](=O)[O-])cc2c(=O)n1-c1ccccc1
[1]
  Activity: 30%

## CCCC(CCC)C(=O)[O-].[Na+] [VALPROATE SODIUM]
[6]
  Activity: 100%
[7]
  Activity: 100%
[8]
  Activity: 100%
[9]
  Activity: 100%

## Cc1ccc2nc(SCC(=O)NN3C(=O)c4cccc5cccc(c45)C3=O)n(-c3ccccc3)c(=O)c2c1
[1]
  Activity: inactive

## O=C1c2cccc3cccc(c23)C(=O)N1Nc1nc2ccc([N+](=O)[O-])cc2c(=O)n1Cc1ccccc1
[1]
  Activity: 30%

## Cc1ccc2nc(SCC(=O)NN3C(=O)c4ccccc4C3=O)n(-c3ccccc3)c(=O)c2c1
[1]
  Activity: inactive

## Cc1ccc2nc(SCC(=O)NN3C(=O)c4c(Cl)c(Cl)c(Cl)c(Cl)c4C3=O)n(Cc3ccccc3)c(=O)c2c1
[1]
  Activity: inactive

## CCOC(=O)CSc1nc2ccc(C)cc2c(=O)n1Cc1ccccc1
[1]
  Activity: inactive

## O=C(COc1nc(-c2cccs2)nc2ccc(I)cc12)NN1C(=O)c2cccc3cccc(c23)C1=O
[1]
  Activity: inactive

## Cn1c(-c2cccs2)nc2ccc(I)cc2c1=O
[2]
  Activity: 100%
[3]
  Activity: 0%
[1]
  Activity: 100%

## Cc1ccc2nc(SCC(=O)NN3C(=O)c4ccccc4C3=O)n(Cc3ccccc3)c(=O)c2c1
[1]
  Activity: inactive

## O=C1c2c(Cl)c(Cl)c(Cl)c(Cl)c2C(=O)N1n1c(-c2cccs2)nc2ccc(I)cc2c1=O
[1]
  Activity: inactive

## CCOC(=O)CSc1nc2ccc(C)cc2c(=O)n1-c1ccccc1
[1]
  Activity: inactive

## O=C(COc1nc(-c2cccs2)nc2ccc(I)cc12)NN1C(=O)c2c(Cl)c(Cl)c(Cl)c(Cl)c2C1=O
[1]
  Activity: 30%

## Cc1ccc2nc(SCC(=O)NN3C(=O)c4cccc5cccc(c45)C3=O)n(Cc3ccccc3)c(=O)c2c1
[2]
  Activity: 100%
[3]
  Activity: 30%
[1]
  Activity: 70%
[4]
  Activity: 80%

## Cc1ccc2nc(SCC(=O)NN)n(Cc3ccccc3)c(=O)c2c1
[1]
  Activity: inactive
[5]
  mortality: 100%

## Cc1ccc2nc(S)n(Cc3ccccc3)c(=O)c2c1
[1]
  Activity: inactive

## NNc1nc2ccc([N+](=O)[O-])cc2c(=O)n1Cc1ccccc1
[1]
  Activity: inactive

## O=C1c2c(Br)c(Br)c(Br)c(Br)c2C(=O)N1n1c(-c2cccs2)nc2ccc(I)cc2c1=O
[1]
  Activity: 30%

## Cc1ccc2nc(SCC(=O)NN3C(=O)c4c(Cl)c(Cl)c(Cl)c(Cl)c4C3=O)n(-c3ccccc3)c(=O)c2c1
[2]
  Activity: 100%
[10]
  Activity: 30%
[11]
  Activity: 70%
[12]
  LD50: 1290 mg/kg
[13]
  Activity: 10%
[3]
  Activity: 70%
[14]
  Activity: 0%
[1]
  Activity: 70%
[15]
  selectivity ratio: 2.82
[16]
  Activity: 20%
[17]
  Ratio TD50/ED50: 1.22
[18]
  Activity: 10%
[19]
  Activity: 100%
[20]
  Activity: 30%
[21]
  Activity: 50%
[22]
  TD50: 562 mg/kg
[23]
  Activity: 0%
[24]
  ED50: 457 mg/kg
[25]
  Activity: 0%
[26]
  Activity: 0%
[27]
  Activity: 0%
[28]
  Activity: 0%

## O=c1oc(-c2cccs2)nc2ccc(I)cc12
[1]
  Activity: inactive

## O=C(Nc1ccc(I)cc1C(=O)O)c1cccs1
[1]
  Activity: inactive

## Cc1ccc2nc(SCC(=O)NN3C(=O)c4c(Br)c(Br)c(Br)c(Br)c4C3=O)n(-c3ccccc3)c(=O)c2c1
[1]
  Activity: inactive

## CCOC(=O)CSc1nc2ccc([N+](=O)[O-])cc2c(=O)n1Cc1ccccc1
[1]
  Activity: inactive

## O=C(COc1nc(-c2cccs2)nc2ccc(I)cc12)NN1C(=O)c2c(Br)c(Br)c(Br)c(Br)c2C1=O
[1]
  Activity: 30%

## NNC(=O)COc1nc(-c2cccs2)nc2ccc(I)cc12
[1]
  Activity: 30%

## CCOC(=O)CSc1nc2ccc([N+](=O)[O-])cc2c(=O)n1-c1ccccc1
[1]
  Activity: inactive

## Cc1ccc2nc(SCC(=O)NN3C(=O)c4c(Br)c(Br)c(Br)c(Br)c4C3=O)n(Cc3ccccc3)c(=O)c2c1
[1]
  Activity: inactive

## Cc1ccc2nc(S)n(-c3ccccc3)c(=O)c2c1
[2]
  Activity: 100%
[3]
  Activity: 0%
[1]
  Activity: 70%
[4]
  Activity: 80%

## O=c1c2cc([N+](=O)[O-])ccc2nc(S)n1Cc1ccccc1
[1]
  Activity: inactive
